Experimental data from ChEMBL document CHEMBL5729391, “Acyclic antivirals” (2022).

Experiment: Inhibition of HBV: Determination of 50% inhibitory concentration (EC50) of compounds in […] cells were performed by the following procedure. On the first day, cells were seeded at 30,000 cells per 100 μL well in Biocoat collage coated flat bottom 96 well plates. On the following day, test compounds were solubilized in 100% DMSO to 100× the desired final testing concentration. Each compound was then serially diluted (1:3) up to 9 different concentrations. Compounds in 100% DMSO are reduced to 10% DMSO by diluting 1:10 in assay media. The final DMSO concentration was 1%. The cells were incubated at 37° C. for 72 hours.The antiviral activity was measured using a quantitative kinetic reverse transcription-polymerase chain reaction (RT-PCR) assay directly measuring the HBV viral copy numbers from the supernatant of HepG2.117 cells. EC50 was defined as the concentration of compound at which the HBV viral copy numbers from the HepG2.117 cells was reduced 50% relative to its level in the absence of compound. HBV viral copy numbers are normalized to the level observed in the absence of inhibitor, which was defined as 100%.
Assay type: cell-based

Structure (SMILES) | EC50
CC(C)OC(=O)[C@H](C)NP(=O)(CO[C@H](C)Cc1cnc2c(N)ncnn12)Oc1ccccc1 (some centres undefined) | < 1 µM
Nc1ncnc2c(C[C@H](OCP(=O)(O)O)C(F)F)cnn12 | in the range around 5.5 µM
CC(C)OC(=O)OCOP(=O)(CO[C@H](C)Cc1ccc2c(N)ncnn12)OCOC(=O)OC(C)C | < 1 µM
Nc1ncnc2c(C[C@@H](OCP(=O)(O)O)C(F)F)cnn12 | in the range around 5.5 µM
CC(C)OC(=O)OCOP(=O)(CO[C@H](C)Cc1cnn2c(N)ncnc12)OCOC(=O)OC(C)C | > 100 µM
CC(C)OC(=O)[C@H](C)NP(=O)(COC(C)Cc1cnc2c(=O)[nH]c(N)nn12)Oc1ccccc1 (some centres undefined) | < 1 µM
Nc1ncnn2c(C[C@H](CF)OCP(=O)(O)O)cnc12 | < 1 µM
CC(C)OC(=O)[C@H](C)NP(=O)(CO[C@H](CF)Cc1cnn2c(N)ncnc12)Oc1ccccc1 (some centres undefined) | < 1 µM
Nc1ncnc2c(CC3(OCP(=O)(O)O)CC3)cnn12 | in the range around 55 µM
CC(Cc1cnc2c(=O)[nH]c(N)nn12)OCP(=O)(O)O (centres undefined) | < 1 µM
Nc1ncnn2c(C[C@@H](CF)OCP(=O)(O)O)cnc12 | in the range around 55 µM
CC(C)OC(=O)OCOP(=O)(COC(C)Cc1ccc2c(N)nc(N)nn12)OCOC(=O)OC(C)C (centres undefined) | in the range around 5.5 µM
CC(C)OC(=O)[C@H](C)NP(=O)(CO[C@H](C)Cc1cnn2c(N)ncnc12)Oc1ccccc1 (some centres undefined) | < 1 µM
CC(C)OC(=O)OCOP(=O)(COCCc1ccc2c(N)ncnn12)OCOC(=O)OC(C)C | in the range around 5.5 µM
CC(C)OC(=O)[C@H](C)NP(=O)(CO[C@@H](CF)Cc1cnn2c(N)ncnc12)Oc1ccccc1 (some centres undefined) | < 1 µM
CC(C)OC(=O)OCOP(=O)(CO[C@H](C)Cc1cnc2c(N)ncnn12)OCOC(=O)OC(C)C | < 1 µM
CC(C)OC(=O)OCOP(=O)(CO[C@@H](C)Cc1cnn2c(N)ncnc12)OCOC(=O)OC(C)C | < 1 µM
CC(C)OC(=O)OCOP(=O)(COC(CF)Cc1cnn2c(N)ncnc12)OCOC(=O)OC(C)C (centres undefined) | < 1 µM
CC(C)OC(=O)OCOP(=O)(COC(C)Cc1ccc2c(=O)[nH]c(N)nn12)OCOC(=O)OC(C)C (centres undefined) | < 1 µM
